Blank lines part the entries; values can stand above or below the compound they belong to.
What was measured:
Tubulin = Tubulin (Bos taurus, UniProt Q6B856+Q862L2+Q862F3); test: Inhibition of bovine brain tubulin polymerization after 20 mins by turbidimetric analysis
A549 = test: cells; details: Homo sapiens, A549, 24 h
Description: Antiproliferative activity against human A549 cells assessed as reduction in cell viability after 24 hrs by MTT assay

MCF7 = test: cells; details: Homo sapiens, MCF7, 24 h
Description: Antiproliferative activity against human MCF7 cells assessed as reduction in cell viability after 24 hrs by MTT assay

HepG2 [1] = test: cells; details: Homo sapiens, HepG2, 24 h
Description: Antiproliferative activity against human HepG2 cells assessed as reduction in cell viability after 24 hrs by MTT assay

HepG2 [2] = test: Induction of apoptosis in human HepG2 cells assessed as viable cells at 0.01 uM after 24 hrs by AnnexinV-FITC/PI staining based flow cytometry (reference value: 93.0%); type: functional; details: HepG2, 24 h, read-out: Activity
HepG2 [3] = test: Induction of apoptosis in human HepG2 cells assessed as early apoptotic cells at 0.01 uM after 24 hrs by AnnexinV-FITC/PI staining based flow cytometry (reference value: 3.89%); type: functional
HepG2 [4] = test: Induction of apoptosis in human HepG2 cells assessed as late apoptotic cells at 0.01 uM after 24 hrs by AnnexinV-FITC/PI staining based flow cytometry (reference value: 1.49%); type: functional
HepG2 [5] = test: Induction of apoptosis in human HepG2 cells assessed as necrotic cells at 0.01 uM after 24 hrs by AnnexinV-FITC/PI staining based flow cytometry (reference value: 1.63%); type: functional
HepG2 [6] = test: Induction of apoptosis in human HepG2 cells assessed as viable cells at 0.03 uM after 24 hrs by AnnexinV-FITC/PI staining based flow cytometry (reference value: 93.0%); type: functional; details: HepG2, 24 h, read-out: Activity
HepG2 [7] = test: Induction of apoptosis in human HepG2 cells assessed as early apoptotic cells at 0.03 uM after 24 hrs by AnnexinV-FITC/PI staining based flow cytometry (reference value: 3.89%); type: functional
HepG2 [8] = test: Induction of apoptosis in human HepG2 cells assessed as late apoptotic cells at 0.03 uM after 24 hrs by AnnexinV-FITC/PI staining based flow cytometry (reference value: 1.49%); type: functional
HepG2 [9] = test: Induction of apoptosis in human HepG2 cells assessed as necrotic cells at 0.03 uM after 24 hrs by AnnexinV-FITC/PI staining based flow cytometry (reference value: 1.63%); type: functional
HepG2 [10] = test: Induction of apoptosis in human HepG2 cells assessed as viable cells at 0.05 uM after 24 hrs by AnnexinV-FITC/PI staining based flow cytometry (reference value: 93.0%); type: functional; details: HepG2, 24 h, read-out: Activity
HepG2 [11] = test: Induction of apoptosis in human HepG2 cells assessed as early apoptotic cells at 0.05 uM after 24 hrs by AnnexinV-FITC/PI staining based flow cytometry (reference value: 3.89%); type: functional
HepG2 [12] = test: Induction of apoptosis in human HepG2 cells assessed as late apoptotic cells at 0.05 uM after 24 hrs by AnnexinV-FITC/PI staining based flow cytometry (reference value: 1.49%); type: functional
HepG2 [13] = test: Induction of apoptosis in human HepG2 cells assessed as necrotic cells at 0.05 uM after 24 hrs by AnnexinV-FITC/PI staining based flow cytometry (reference value: 1.63%); type: functional
HepG2 [14] = test: Cell cycle arrest in human HepG2 cells assessed as accumulation of cells at G1 phase of cell cycle at 0.01 uM after 48 hrs by propidium iodide staining based flow cytometry (reference value: 75.2%); type: functional
HepG2 [15] = test: Cell cycle arrest in human HepG2 cells assessed as accumulation of cells at G2 phase of cell cycle at 0.01 uM after 48 hrs by propidium iodide staining based flow cytometry (reference value: 5.09%); type: functional
HepG2 [16] = test: Cell cycle arrest in human HepG2 cells assessed as accumulation of cells at S phase of cell cycle at 0.01 uM after 48 hrs by propidium iodide staining based flow cytometry (reference value: 19.71%); type: functional
HepG2 [17] = test: Cell cycle arrest in human HepG2 cells assessed as accumulation of cells at G1 phase of cell cycle at 0.03 uM after 48 hrs by propidium iodide staining based flow cytometry (reference value: 75.2%); type: functional
HepG2 [18] = test: Cell cycle arrest in human HepG2 cells assessed as accumulation of cells at G2 phase of cell cycle at 0.03 uM after 48 hrs by propidium iodide staining based flow cytometry (reference value: 5.09%); type: functional
HepG2 [19] = test: Cell cycle arrest in human HepG2 cells assessed as accumulation of cells at S phase of cell cycle at 0.03 uM after 48 hrs by propidium iodide staining based flow cytometry (reference value: 19.71%); type: functional
HepG2 [20] = test: Cell cycle arrest in human HepG2 cells assessed as accumulation of cells at G1 phase of cell cycle at 0.05 uM after 48 hrs by propidium iodide staining based flow cytometry (reference value: 75.2%); type: functional
HepG2 [21] = test: Cell cycle arrest in human HepG2 cells assessed as accumulation of cells at G2 phase of cell cycle at 0.05 uM after 48 hrs by propidium iodide staining based flow cytometry (reference value: 5.09%); type: functional
HepG2 [22] = test: Cell cycle arrest in human HepG2 cells assessed as accumulation of cells at S phase of cell cycle at 0.05 uM after 48 hrs by propidium iodide staining based flow cytometry (reference value: 19.71%); type: functional

Structure (SMILES): COc1ccc(C2=NN(C(=O)c3cccc(OC)c3)C(c3ccc4c(c3)OCO4)C2)cc1 (centres undefined)
IC50 (Tubulin): 34.77 µM | IC50 (A549): 6.17 µM | IC50 (MCF7): 8.22 µM | IC50 (HepG2 [1]): 6.25 µM

Structure (SMILES): COc1ccccc1C1=NN(C(=O)c2cc(OC)c(OC)c(OC)c2)C(c2ccc3c(c2)OCO3)C1 (centres undefined)
IC50 (Tubulin): 2.35 µM | IC50 (A549): 0.11 µM | IC50 (MCF7): 0.21 µM | IC50 (HepG2 [1]): 0.12 µM

Structure (SMILES): COc1ccc(C2=NN(C(=O)c3cc(OC)c(OC)c(OC)c3)C(c3ccc4c(c3)OCO4)C2)cc1OC (centres undefined)
IC50 (Tubulin): 2.13 µM | IC50 (A549): 0.08 µM | IC50 (MCF7): 0.07 µM | IC50 (HepG2 [1]): 0.06 µM

Structure (SMILES): COc1cc(C(=O)N2N=C(c3cc(OC)c(OC)c(OC)c3)CC2c2ccc3c(c2)OCO3)cc(OC)c1OC (centres undefined)
IC50 (Tubulin): 11.37 µM | IC50 (A549): 2.23 µM | IC50 (MCF7): 3.26 µM | IC50 (HepG2 [1]): 3.15 µM

Structure (SMILES): CCOc1ccc(C2=NN(C(=O)c3ccc(Br)cc3)C(c3ccc4c(c3)OCO4)C2)cc1 (centres undefined)
IC50 (Tubulin): > 40 µM | IC50 (A549): > 10 µM | IC50 (MCF7): > 10 µM | IC50 (HepG2 [1]): > 10 µM

Structure (SMILES): COc1ccccc1C1=NN(C(=O)c2ccc(Br)cc2)C(c2ccc3c(c2)OCO3)C1 (centres undefined)
IC50 (Tubulin): > 40 µM | IC50 (A549): > 10 µM | IC50 (MCF7): > 10 µM | IC50 (HepG2 [1]): > 10 µM

Structure (SMILES): COc1cccc(C2=NN(C(=O)c3ccc(Br)cc3)C(c3ccc4c(c3)OCO4)C2)c1 (centres undefined)
IC50 (Tubulin): > 40 µM | IC50 (A549): > 10 µM | IC50 (MCF7): > 10 µM | IC50 (HepG2 [1]): > 10 µM

The next lines start with results.

IC50 (Tubulin): 2.19 µM | IC50 (A549): 0.09 µM | IC50 (MCF7): 0.17 µM | IC50 (HepG2 [1]): 0.07 µM
Structure (SMILES): CCOc1ccc(C2=NN(C(=O)c3cc(OC)c(OC)c(OC)c3)C(c3ccc4c(c3)OCO4)C2)cc1 (centres undefined)

IC50 (Tubulin): 1.91 µM | IC50 (A549): 0.09 µM | IC50 (MCF7): 0.06 µM | IC50 (HepG2 [1]): 0.07 µM
Structure (SMILES): COc1cccc(C2=NN(C(=O)c3cc(OC)c(OC)c(OC)c3)C(c3ccc4c(c3)OCO4)C2)c1 (centres undefined)

IC50 (Tubulin): 1.88 µM | IC50 (A549): 0.07 µM | IC50 (MCF7): 0.05 µM | IC50 (HepG2 [1]): 0.03 µM
Structure (SMILES): COc1ccc(C2=NN(C(=O)c3cc(OC)c(OC)c(OC)c3)C(c3ccc4c(c3)OCO4)C2)cc1 (centres undefined)
viability at 0.01 µM (HepG2 [2]): 91.2% | Activity (HepG2 [3]): 5.12% | Activity (HepG2 [4]): 1.92% | Activity (HepG2 [5]): 1.75% | viability at 0.03 µM (HepG2 [6]): 85% | Activity (HepG2 [7]): 8.72% | Activity (HepG2 [8]): 2.52% | Activity (HepG2 [9]): 3.76% | viability at 0.05 µM (HepG2 [10]): 76.4% | Activity (HepG2 [11]): 13.4% | Activity (HepG2 [12]): 5.34% | Activity (HepG2 [13]): 4.86% | Activity (HepG2 [14]): 68.96% | Activity (HepG2 [15]): 5.99% | Activity (HepG2 [16]): 25.06% | Activity (HepG2 [17]): 35.62% | Activity (HepG2 [18]): 50.11% | Activity (HepG2 [19]): 14.28% | Activity (HepG2 [20]): 34.65% | Activity (HepG2 [21]): 52.2% | Activity (HepG2 [22]): 13.14%

IC50 (Tubulin): 19.45 µM | IC50 (A549): 4.21 µM | IC50 (MCF7): 6.37 µM | IC50 (HepG2 [1]): 5.25 µM
Structure (SMILES): COc1cc(C(=O)N2N=C(c3ccc(Br)cc3)CC2c2ccc3c(c2)OCO3)cc(OC)c1OC (centres undefined)

IC50 (Tubulin): 18.02 µM | IC50 (A549): 3.08 µM | IC50 (MCF7): 4.26 µM | IC50 (HepG2 [1]): 3.16 µM
Structure (SMILES): COc1cc(C(=O)N2N=C(c3ccc(Cl)cc3)CC2c2ccc3c(c2)OCO3)cc(OC)c1OC (centres undefined)

IC50 (Tubulin): 7.89 µM | IC50 (A549): 0.76 µM | IC50 (MCF7): 0.32 µM | IC50 (HepG2 [1]): 0.25 µM
Structure (SMILES): COc1cc(C(=O)N2N=C(c3ccc(F)cc3)CC2c2ccc3c(c2)OCO3)cc(OC)c1OC (centres undefined)

IC50 (Tubulin): > 40 µM | IC50 (A549): 7.11 µM | IC50 (MCF7): 9.23 µM | IC50 (HepG2 [1]): 7.15 µM
Structure (SMILES): COc1cc(C(=O)N2N=C(c3cccc(Cl)c3)CC2c2ccc3c(c2)OCO3)cc(OC)c1OC (centres undefined)

IC50 (Tubulin): 10.11 µM | IC50 (A549): 1.14 µM | IC50 (MCF7): 2.35 µM | IC50 (HepG2 [1]): 2.91 µM
Structure (SMILES): COc1cc(C(=O)N2N=C(c3ccc(C)cc3)CC2c2ccc3c(c2)OCO3)cc(OC)c1OC (centres undefined)

IC50 (Tubulin): 7.08 µM | IC50 (A549): 5.08 µM | IC50 (MCF7): 7.34 µM | IC50 (HepG2 [1]): 5.17 µM
Structure (SMILES): COc1cc(C(=O)N2N=C(c3cccc(C)c3)CC2c2ccc3c(c2)OCO3)cc(OC)c1OC (centres undefined)

IC50 (Tubulin): 15.63 µM | IC50 (A549): 2.19 µM | IC50 (MCF7): 3.38 µM | IC50 (HepG2 [1]): 2.24 µM
Structure (SMILES): COc1cc(C(=O)N2N=C(c3ccccc3)CC2c2ccc3c(c2)OCO3)cc(OC)c1OC (centres undefined)
